Experimental findings from patent US20140248383A1, “SLEEP QUALITY IMPROVING AGENT” (LION CORPORATION, priority 2011, published 2014) are described below.

In the test the test system is male C57BL/6 mice. The experiment in a line: Measurement of amount of activity of mice (sleep inducing effect). Format: in vivo. The procedure:
When a sample has the function of inducing sleep, the amount of activity always decreases after administration of the sample. Therefore, the sleep inducing effect of each sample was evaluated by determining whether or not the administration of the sample solution to a mouse caused a reduction in the amount of activity.
8-Week old or 9-week old male C57BL/6 mice were purchased from Japan SLC, Inc. and acclimatized for 3 to 6 days. The amount of activity during acclimatization was used to divide the mice into administration groups. Immediately before the onset of the dark period, Fraxinus excelsior L. extract was orally administered in an amount of 3 g/kg per body weight of a mouse (Example 1-1), or a 0.5% by mass aqueous methyl cellulose solution was orally administered in an amount of 10 mL/kg per body weight of a mouse (Comparative Example 1-1), and the amount of activity was measured for 24 hours after administration. Each administration group included 8 mice (n=8).
The amount of activity was measured under the following conditions. The mice were raised in individual cages, and an infrared camera was disposed above each cage. The imaging range of the infrared camera was divided into 64 sections, and the number of occurrences that the mouse crossed a section was measured. The number of occurrences was collected every 30 minutes. […]

Consider `O=C1c2c(O)cc(O)cc2O[C@H](c2ccc(O)c(O)c2)[C@H]1O` [DIHYDROQUERCETIN, dihydroquercetin], for which the “cumulative amount of activity 6 hours after administration” value (dihydroquercetin 2.7 g/kg oral immediately before dark period, n=4) is listed as 4700 number of occurrences/6 hours. Moreover, the “cumulative amount of activity 6 hours after administration compared to control solution” value (dihydroquercetin 2.7 g/kg oral, n=4, significant difference at p<0.01) was “significantly lower”.
